Measurements taken from PubChem BioAssay AID330 (DTP/NCI, 2004).
Where “and” joins values, the source holds several entries; their conditions need not be identical. Equal values may be shown once. Toxic doses and inconclusive results are not listed. How the source made its calls: active means survival T/C of 150% or more; inactive means T/C below 125% in these data.

System: P388 leukemia ip, CD2F1 mice, survival T/C
Experiment: NCI In Vivo Anticancer Drug Screen. Data for tumor model P388 Leukemia (intraperitoneal) in CD2F1 (CDF1) mice
Conditions: endpoint: median survival time, schedule: Q01DX005 (ip), higher = longer survival
In short: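 Mice carrying the transplanted tumor received test compound or vehicle. Survival was recorded in each group, and the value is the treated-group measurement divided by that of the vehicle-treated control group.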

Measured: T/C

CC(C)c1cc(C(=O)O)c(O)c(C(C)C)c1.CC(C)c1cc(C(=O)O)c(O)c(C(C)C)c1.[Mn]
inactive: dose: 15.0 mg/kg/injection, vehicle: Klucel (hydroxypropylcellulose) (HPC) 104 % of control and 106 % of control | dose: 15.0 mg/kg/injection, vehicle: other 101 % of control | dose: 30.0 mg/kg/injection, vehicle: Klucel (hydroxypropylcellulose) (HPC) 110 % of control and 114 % of control | dose: 30.0 mg/kg/injection, vehicle: other 105 % of control and 109 % of control | dose: 60.0 mg/kg/injection, vehicle: Klucel (hydroxypropylcellulose) (HPC) 116 % of control and 117 % of control and 120 % of control | dose: 60.0 mg/kg/injection, vehicle: other 114 % of control and 95 % of control | dose: 120.0 mg/kg/injection, vehicle: Klucel (hydroxypropylcellulose) (HPC) 112 % of control and 116 % of control | dose: 120.0 mg/kg/injection, vehicle: other 114 % of control and 87 % of control | dose: 240.0 mg/kg/injection, vehicle: other 100 % of control
